Measured values taken from US20150087673A1, “METHODS FOR USING AND BIOMARKERS FOR AMPK-ACTIVATING COMPOUNDS” (RIGEL PHARMACEUTICALS, INC., priority 2013, published 2015).

Tested on: AMPK
Experiment: AMPK activation assay (enzyme-linked immunosorbent assay)
Type: cell-based
How it was run: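 Compounds were tested for their capacity to activate the kinase using standard, commercially available kit reagents and procedures.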

Compound | EC50 [nM]
CC(C)Oc1ccc(CN2CCC(NC(=O)c3ccc(C(=O)N4CCC(C(=O)c5ccc(N6CCCC6)cc5)CC4)nc3)CC2)cc1 [Compound 446, N-(1-(4-isopropoxybenzyl)piperidin-4-yl)-6-(4-(4-(pyrrolidin-1-yl)benzoyl)piperidine-1-carbonyl)nicotinamide] | < 500
O=C(Nc1ccc(Oc2ccc(F)cc2)nc1)c1ccc(C(=O)N2CCC(C(=O)c3ccc(N4CCCC4)cc3)CC2)cn1 [Compound 368, N-(6-(4-fluorophenoxy)pyridin-3-yl)-5-(4-(4-(pyrrolidin-1-yl)benzoyl)piperidine-1-carbonyl)picolinamide] | < 500
O=C(c1ccc(Nc2cccc(-c3ccccc3)c2)nc1)N1CCN(Cc2ccc(F)cc2)CC1 [Compound 33, (6-(3-phenylphenylamino)pyridin-3-yl)(4-(4-fluorobenzyl)piperazin-1-yl)methanone] | 5000 to 10000
COc1ccc(C(=O)C2CCN(C(=O)c3ccc(C(=O)N[C@@H]4CCN(Cc5cc(C)on5)C[C@@H]4F)cn3)CC2)cc1 [Compound 426, N-((3S,4R)-3-fluoro-1-((5-methylisoxazol-3-yl)methyl)piperidin-4-yl)-6-(4-(4-methoxybenzoyl)piperidine-1-carbonyl)nicotinamide] | < 500
COc1ccc(CN2CCC(NC(=O)c3ccc(C(=O)N4CCC(C(=O)c5ccc(F)c(F)c5)CC4)cn3)CC2)cc1 [Compound 329, 5-(4-(3,4-difluorobenzoyl)piperidine-1-carbonyl)-N-(1-(4-methoxybenzyl)piperidin-4-yl) picolinamide] | < 500
Cc1cc(CN2CCC(NC(=O)c3ccc(C(=O)N4CCN(Cc5ccc(F)cc5)CC4)cn3)CC2)ccc1F [Compound 50, 5-(4-(4-fluorobenzyl)piperazine-1-carbonyl)-N-(1-(4-fluoro-3-methylbenzyl)piperidin-4-yl)picolinamide] | < 500
CS(=O)(=O)c1ccc(OC2CCN(C(=O)c3ccc(C(=O)Nc4ccc(Oc5ccc(C#N)cc5)nc4)cn3)CC2)cc1 [Compound 459, N-(6-(4-cyanophenoxy)pyridin-3-yl)-6-(4-(4-(methylsulfonyl)phenoxy)piperidine-1-carbonyl)nicotinamide] | < 500
O=C(Nc1ccc(Oc2ccc(F)cc2)nc1)c1ccc(C(=O)N2CCC(Oc3cccc(NC(=O)C4CC4)c3)CC2)nc1 [Compound 433, 6-(4-(3-(cyclopropanecarboxamido)phenoxy)piperidine-1-carbonyl)-N-(6-(4-fluorophenoxy)pyridin-3-yl)nicotinamide] | < 500
O=C(Nc1ccc(-c2ccc(C(F)(F)F)cc2)cc1)c1ccc(C(=O)N2CCN(Cc3ccc(F)cc3)CC2)cn1 [Compound 25, 5-(4-(4-fluorobenzyl)piperazine-1-carbonyl)-N-(4-(4-trifluoromethylphenyl)phenyl)picolinamide] | < 500
COc1ccc(OC2CCN(C(=O)c3ccc(C(=O)NC4CCN(Cc5ccc(C#N)cc5)CC4)cn3)CC2)c(NS(C)(=O)=O)c1 [Compound 389, N-(1-(4-cyanobenzyl)piperidin-4-yl)-6-(4-(4-methoxy-2-(methylsulfonamido)phenoxy)piperidine-1-carbonyl)nicotinamide] | 1000 to 5000
CC(=O)c1ccc(OC2CCN(C(=O)c3ccc(C(=O)NC4CCN(Cc5ccc(F)cc5)CC4)cn3)CC2)cc1 [Compound 391, 6-(4-(4-acetylphenoxy)piperidine-1-carbonyl)-N-(1-(4-fluorobenzyl)piperidin-4-yl)nicotinamide] | < 500
N#Cc1ccc(CN2CCC(NC(=O)c3ccc(C(=O)N4CCC(C(O)c5ccc(F)cc5)CC4)cn3)CC2)cc1 (stereo not drawn) [Compound 142, N-(1-(4-cyanobenzyl)piperidin-4-yl)-5-(4-((4-fluorophenyl)(hydroxy)methyl)piperidine-1-carbonyl)picolinamide] | < 500
N#Cc1ccc(Cn2ccc(NC(=O)c3ccc(C(=O)N4CCN(Cc5ccc(F)cc5)CC4)cn3)n2)cc1 [Compound 9, N-(1-(4-cyanobenzyl)-1H-pyrazol-3-yl)-5-(4-(4-fluorobenzyl)piperazine-1-carbonyl)picolinamide] | < 500
COc1ccc(C(=O)C2CCN(C(=O)c3ccc(C(=O)NC4CCN(Cc5ccc(F)cc5)CC4)nc3)CC2)cc1 [Compound 178, N-(1-(4-fluorobenzyl)piperidin-4-yl)-5-(4-(4-methoxybenzoyl)piperidine-1-carbonyl)picolinamide] | < 500
N#Cc1ccc(OC2CCN(C(=O)c3ccc(C(=O)NC4CCN(Cc5ccc(N6CCCC6)cc5)CC4)nc3)CC2)cc1 [Compound 197, 5-(4-(4-cyanophenoxy)piperidine-1-carbonyl)-N-(1-(4-(pyrrolidin-1-yl)benzyl)piperidin-4-yl)picolinamide] | < 500
N#Cc1cccc(-c2ccc(NC(=O)c3ccc(C(=O)N4CCN(Cc5ccc(F)cc5)CC4)cn3)cc2)c1 [Compound 32, N-(4-(3-cyanophenyl)phenyl)-5-(4-(4-fluorobenzyl)piperazine-1-carbonyl)picolinamide] | 500 to 1000
COc1ccc(OC2CCN(C(=O)c3ccc(C(=O)NC4CCN(Cc5ccc(C#N)cc5)CC4)cn3)CC2)c(N(C)C)c1 [Compound 385, N-(1-(4-cyanobenzyl)piperidin-4-yl)-6-(4-(2-(dimethylamino)-4-methoxyphenoxy)piperidine-1-carbonyl)nicotinamide] | > 10000
O=C(NC1CCN(Cc2cc(F)cc(F)c2)CC1)c1ccc(C(=O)N2CCC(Oc3ccc(F)cc3)CC2)cn1 [Compound 295, N-(1-(3,5-difluorobenzyl)piperidin-4-yl)-5-(4-(4-fluorophenoxy)piperidine-1-carbonyl)picolinamide] | < 500
O=C(NC1CCN(Cc2ccccc2)CC1)c1ccc(Nc2cccc(-c3ccccc3)c2)cn1 [Compound 114, N-(1-benzylpiperidin-4-yl)-5-(biphenyl-3-ylamino)picolinamide] | 1000 to 5000
CC(=O)Nc1cccc(OC2CCN(C(=O)c3ccc(C(=O)NC4CCN(Cc5ccc(C#N)cc5)CC4)cn3)CC2)c1 [Compound 411, 6-(4-(3-acetamidophenoxy)piperidine-1-carbonyl)-N-(1-(4-cyanobenzyl)piperidin-4-yl)nicotinamide] | 1000 to 5000
O=C(c1cccc(C(=O)N2CCN(Cc3ccc(F)cc3)CC2)n1)N1CCN(CCc2ccccc2)CC1 [Compound 93, (4-(4-fluorobenzyl)piperazin-1-yl)(6-(4-phenethylpiperazine-1-carbonyl)pyridin-2-yl)methanone] | > 10000
O=C(Nc1cccc(-c2ccccc2)c1)c1ccc(C(=O)NC2CCN(Cc3ccccc3)CC2)nc1 [Compound 106, N2-(1-benzylpiperidin-4-yl)-N5-(biphenyl-3-yl)pyridine-2,5-dicarboxamide] | 5000 to 10000
CN1CCN(c2ccc(C(=O)C3CCN(C(=O)c4ccc(C(=O)Nc5ccc(Oc6ccc(F)cc6)nc5)cn4)CC3)cc2)CC1 [Compound 245, N-(6-(4-fluorophenoxy)pyridin-3-yl)-6-(4-(4-(4-methylpiperazin-1-yl)benzoyl)piperidine-1-carbonyl)nicotinamide] | < 500
N#Cc1ccc(CN2CCC(NC(=O)c3ccc(C(=O)N4CCC(Oc5ccc(S(=O)(=O)C(F)(F)F)cc5)CC4)nc3)CC2)cc1 [Compound 450, N-(1-(4-cyanobenzyl)piperidin-4-yl)-6-(4-(4-(trifluoromethylsulfonyl)phenoxy)piperidine-1-carbonyl)nicotinamide] | < 500
